Measurements published in patent US11976280B2, “SMAC/Diablo inhibitors useful for treating cancer” (THE NATIONAL INSTITUTE FOR BIOTECHNOLOGY IN THE NEGEV LTD., priority 2017, dated 2024).
Non-standard residues stand in square brackets, D forms with d. No end group written: not given here. Dmt = Cc1cc(O)cc(C)c1C[C@H](N)C(=O)O; Orn = NCCC[C@H](N)C(=O)O; d = 2'-deoxy (DNA); m = 2'-O-methyl; r = 2'-OH (RNA)

Tests used:
[1] = tested on: A549 cells; test: SRB cell growth of A549 cells treated with peptide conjugates (Table 8); type: cell-based, human; settings: 48 h in serum (10%) medium or 24 h serum-free, mean±SD (n=3)
Method: A549 cells were seeded in 96-well plate (5000 cells/well). After 24 h cells were incubated with each of the examined peptides at a concentration of 5, 10, or 30 μM for 48 h in a serum (10%) containing medium or for 24 h in a serum-free medium. Then, cells were washed with PBS, fixed with 10% trichloroacetic acid, and analyzed for cell growth using the SRB method described herein above. Cell growth with no addition of a peptide was taken as a control (100% cell growth). Table 8 presents the cell growth in the presence of the peptide as % of control. Results are the mean±SD (n=3).

[2] = biological target: T1, SMAC/Diablo (Homo sapiens, UniProt Q9NR28); test: Peptide array after pre-incubation of SMAC/Diablo with free peptide; type: binding; settings: for SMAC/Diablo interaction with the corresponding array-bound peptide: SMAC 0.8 μM pre-incubated with free peptide 2.4 μM
T1 sequence (Q9NR28 22-239): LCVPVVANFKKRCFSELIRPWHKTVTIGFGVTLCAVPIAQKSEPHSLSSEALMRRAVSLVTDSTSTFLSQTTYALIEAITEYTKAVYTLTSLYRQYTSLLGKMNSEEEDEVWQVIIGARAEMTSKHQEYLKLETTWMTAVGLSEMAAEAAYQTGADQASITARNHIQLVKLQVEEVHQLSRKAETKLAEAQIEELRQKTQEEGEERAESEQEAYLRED
Method: The glass-bound peptide array described hereinabove was used. SMAC/Diablo (0.8 μM) was incubated with each of the peptides—2C18 (2.4 μM) and 1G12 (2.4 μM) for 2 hr at 24° C. and then incubated with the peptide array for 4 h at 4° C. Then the slides were washed and SMAC/Diablo antibodies (1:2000) were added, followed by incubation with HRP-conjugated anti-mouse IgG after which chemiluminescent spots were detected. Corresponding glass-bound peptide array incubated overnight with 0.8 μM free SMAC/Diablo, blotted with the same concentration of SMAC/Diablo antibodies followed by incubation with HRP-conjugated anti-mouse IgG served as a control. […] This is indicated by the decreased intensity or disappearance of chemiluminescence in the peptide spot position compared to the control (FIG. 16 and FIG. 17, respectively). Moreover, pre-incubation of SMAC/Diablo with peptide 2C18 decreased SMAC/Diablo interaction with the array-bound peptides 1M17 and 1N23 derived from Nuclear receptor subfamily 4 group A member 1 Protein (NR4A1) and peptide 1K20 derived from TNF receptor associated factor 2 Protein (TRAF2) (FIG. 16B, eliminated spots are circled).

[3] = tested on: A549 cells; test: SRB cell growth assay, si-hSMAC B-D and 2′-O-Me modified siRNAs; type: cell-based, human; settings: 30 and 50 nM
Method: The siRNAs were synthesized by Genepharma (Suzhou, China). Cells were seeded (150,000 cells/well) on 6-well culture dishes to 40-60% confluence and transfected with 10-100 nM si-NT or si-hSMAC/Diablo using the JetPRIME transfection reagent (Illkirch, France), according to the manufacturers' instructions.
Twenty-four hours post-transfection with si-NT or si-hSMAC, cells (10,000/well) were counted and seeded in 96-well plates. After additional 48, 72 or 96 hours, the cells were washed with PBS, fixed with 10% trichloroacetic acid, and stained with SRB. SRB was extracted from the cells using 100 mM Tris base and absorbance at 510 nm was determined using an Infinite M1000 plate reader (Tecan, Männedorf, Switzerland).
si-hSMAC-A and si-hSMAC-B were modified by 2′-O methylation (2′-O Me) to form si-hSMAC-A1, si-hSMAC-A2 si-hSMAC-A3 si-hSMAC-A4 si-hSMAC-B1 si-hSMAC-B2 si-hSMAC-B3 and si-hSMAC-B4 described hereinabove. The effect of these modified forms on SMAC/Diablo expression and on cell proliferation was examined using 30 and 50 nM of each inhibitory RNA molecule in the lung cancer line A549.

[4] = pre-incubation with free peptide 2.4 μM

Substance | Cell growth, % of control ([1]; peptide 5 μM) | Cell growth, % of control ([1]; peptide 10 μM) | Cell growth, % of control ([1]; peptide 30 μM) | reducing cell proliferation, ranking among modified molecules [3] | other results
1G12-nuCPP: peptide conjugate targeted to nucleus, SEQ ID NO:70 (LIRKNRMALFQQLTCVLPILDNLLKR[dR]RK) | 109 ± 0.013 % of control | 76 ± 0.024 % of control | 39 ± 0.013 % of control | – | –
1H13-mtCPP-NH2: peptide conjugate targeted to mitochondria, SEQ ID NO:73 (SGCAFLSVKKQFEELTLGEFLKLD[dR][Dmt][Orn]F-NH2) | 85 ± 0.022 % of control | 60 ± 0.018 % of control | 49 ± 0.014 % of control | – | –
1H13-nuCPP: peptide conjugate targeted to nucleus, SEQ ID NO:69 (SGCAFLSVKKQFEELTLGEFLKLDR[dR]RK) | 92 ± 0.018 % of control | 57 ± 0.013 % of control | 30 ± 0.009 % of control | – | –
ANT-2C18 (MRQIKIWFQNRRMKWKVRFITKIWHPNISSVTGAICLDILK) | 127 ± 0.006 % of control | 145 ± 0.0162 % of control | 97 ± 0.011 % of control | – | –
LIRKNRMALFQQLTCVLPILDNLLK [1G12] | – | – | – | – | SMAC/Diablo interaction with the corresponding array-bound peptide [2]: significantly decreased or even prevented; SMAC/Diablo interaction with array-bound 1G12, 1G13, 1H13 (BIRC5) and 2D9 (MAML2) [2, 4]: significantly reduced
TF-1G12: peptide conjugate targeted to cytosol, SEQ ID NO:76 (HAIYPRLIRKNRMALFQQLTCVLPILDNLLK; not fully specified) | 99 ± 0.004 % of control | 98 ± 0.005 % of control | 99 ± 0.005 % of control | – | –
VRFITKIWHPNISSVTGAICLDILK [2C18] | – | – | – | – | SMAC/Diablo interaction with the corresponding array-bound peptide [2]: significantly decreased or even prevented; SMAC/Diablo interaction with array-bound peptides 1M17, 1N23 (NR4A1) and 1K20 (TRAF2) [2, 4]: decreased
mtCPP-2C18: peptide conjugate targeted to mitochondria, SEQ ID NO:74 ([dR][Dmt][Orn]FVRFITKIWHPNISSVTGAICLDILK) | 89 ± 0.005 % of control | 74 ± 0.004 % of control | 59 ± 0.004 % of control | – | –
nuCPP-1G12: peptide conjugate targeted to nucleus, SEQ ID NO:71 (R[dR]RKLIRKNRMALFQQLTCVLPILDNLLK) | 96 ± 0.012 % of control | 72 ± 0.01 % of control | 66 ± 0.009 % of control | – | –
si-hSMAC-A1: si-hSMAC-A with 2′-O-Me at sense positions 5, 10, 16, 21 (SEQ ID NO:28) and antisense 6, 12, 19 (SEQ ID NO:29) (sense AAGCGGUGUUUCUCAGAAUUGTT; antisense AACAAUUCUGAGAAACCCGCTT; sense: sugars from the 5' end rrrrmrrrrmrrrrrmrrrrmdd, backbone not given here; antisense: sugars from the 5' end rrrrrmrrrrrmrrrrrrmrdd, backbone not given here) | – | – | – | most active in reducing cell proliferation | –
si-hSMAC-A4: si-hSMAC-A with 2′-O-Me at sense positions 3, 6, 11, 21 (SEQ ID NO:34) and antisense 6, 19 (SEQ ID NO:35) (sense AAGCGGUGUUUCUCAGAAUUGTT; antisense AACAAUUCUGAGAAACCCGCTT; sense: sugars from the 5' end rrmrrmrrrrmrrrrrrrrrmdd, backbone not given here; antisense: sugars from the 5' end rrrrrmrrrrrrrrrrrrmrdd, backbone not given here) | – | – | – | most active in reducing cell proliferation | –
si-hSMAC-B2: si-hSMAC-B with 2′-O-Me at sense positions 4, 9, 13, 17 (SEQ ID NO:38) and antisense 6, 12, 18 (SEQ ID NO:39) (sense GCAGAUCAGGCCUCUAUAATT; antisense UUAUAGAGGCCUGAUCUGCTT; sense: sugars from the 5' end rrrmrrrrmrrrmrrrmrrdd, backbone not given here; antisense: sugars from the 5' end rrrrrmrrrrrmrrrrrmrdd, backbone not given here) | – | – | – | most active | –
si-hSMAC-B3: si-hSMAC-B with 2′-O-Me at sense positions 6, 10, 15 (SEQ ID NO:40) and antisense 2, 9, 17 (SEQ ID NO:41) (sense GCAGAUCAGGCCUCUAUAATT; antisense UUAUAGAGGCCUGAUCUGCTT; sense: sugars from the 5' end rrrrrmrrrmrrrrmrrrrdd, backbone not given here; antisense: sugars from the 5' end rmrrrrrrmrrrrrrrmrrdd, backbone not given here) | – | – | – | most active | –
